Source: patent publication US20090233841A1, “ANALGESIC CONJUGATES” (Regents of the University of Minnesota, priority 2005, published 2009)
“Also recorded” adds a separate entry of the source.

Assays:
[1] = test system: male ICR mice; experiment: Tolerance: tail flick ED50 after 3-day chronic ICV infusion (osmotic minipump); format: in vivo, mouse; settings: for tolerance on chronic ICV administration: 3-day ICV infusion; for Chronic ED50 nmol (95% C.L.): compound chronically administered ICV for 3 days, then challenge doses; for Saline ED50 nmol (95% C.L.): saline chronically administered ICV for 3 days, then challenge doses of compound
Protocol: (§1) Chronic administration To investigate tolerance and dependence associated with these conjugates, chronic ICV administration studies were performed. The compound of interest was administered ICV via a cannula using an osmotic minipump for 3 days, as previously described (Gomori et al., 2003; Mashiko et al., 2003). Withdrawal was measured by administering naloxone (1 mg/kg; subcutaneous (sc)) and counting the naloxone-precipitated jumps for 10 minutes. Tolerance was determined by administering challenge doses of the compound after chronic infusion for 3 days, and determining the chronic ED50 value at that time.
(§2) Chronic ICV infusion. Osmotic minipumps (model 1003D, Alzet, Durect Corporation, Cupertino, Calif.) were filled with saline or the drug to be tested. The dose of each drug was twelve times its ED50 (nmol)/hour. The minipumps were connected by a 1.6-1.8 cm length of PE-60 tubing to a 3-mm long cannula (osmotic pump connector cannula, Plastics One, Roanoke, Va.) and primed in sterile saline at 37° C. overnight.
(§3) The next day, mice were anesthetized with Avertin (2,2,2-tribromoethanol (370 mg/kg, IP)/tert amyl alcohol (0.16 mg/kg, IP)) before surgery. The scalp was shaved and an incision was made along the midline of the scalp. Hemostats were used to make a pocket under the skin between the shoulder blades. The skull was scraped clean of periosteum so that the cannula pedestal would properly adhere to the skull. A micro drill (Fine Science Tools Inc., Foster City, Calif.) was used to drill a hole approximately 1.6 mm lateral and 0.6 mm caudal to bregma. The minipump was placed between the shoulder blades, the cannula was inserted in the drilled hole into the lateral ventricle, and the cannula pedestal was affixed to the skull with cyanoacrylate glue. The animals were allowed to recover on a heating pad (Fine Science Tools, Foster City, Calif.) and were returned to their cages in the animal facility for three days.
To test the degree of tolerance developed, the osmotic minipump was removed and the mice were returned to their cages for four hours. The mice were then injected with the test drug into the contralateral lateral cerebral ventricle and antinociception was measured with the tail flick test as described above.

[2] = test system: male ICR mice; experiment: Mouse tail flick assay after IV administration; settings: for decrease in potency when administering IV versus ICV: tail flick ED50 IV versus ICV
Protocol: Antinociceptive testing. Antinociception was evaluated by the radiant heat tail flick assay (D'Amour et al., 1941). Briefly, a beam of light was focused on the mouse tail and the time until the tail flicked was measured. Each animal served as its own control and was used only once. Mice were tested once before injection (control time). After injection, the mice were tested at the time of peak drug response (drug time), as determined by pilot time course studies. The light intensity was adjusted so that control times were between 1.5 and 2.5 s. A 10 second cutoff drug time was set to minimize the risk of tissue damage. Percent maximum possible effect (% MPE) was calculated as follows (Dewey et al., 1970): […]
Graded dose response curves of at least 4 doses with at least 8 mice per dose were generated from the % MPE data.
Methods Drugs were administered IV via the tail vein in a volume of 100 μl to male ICR mice. Fifteen minutes later, antinociception was measured by the tail flick assay and charcoal meal (300 μl, oral) was administered by gavage. Thirty minutes after the charcoal meal., the mice were sacrificed by halothane overdose and the distance the charcoal traveled relative to the entire length of the GI tract was compared to the distance traveled in control animals injected with saline. The conjugates tested (MDAN-16, MDAN-19, MDAN-20, and MDAN-21) had linker lengths of 19, 23, 24, and 25 Å.

[3] = test system: mice; experiment: Conditioned place preference (CPP); format: in vivo, mouse; settings: for conditioned place preference: IV; for conditioned place preference (summary statement): dose not restated
Protocol: Conditioned place preference (CPP) is a technique used to measure the rewarding properties of a drug. Two sides of the CPP apparatus have both visual and tactile differences, so that a mouse can tell the difference between sides. On the first day of testing, the time each mouse spends in either side of the apparatus is measured. For the next three days, the drug is “paired” with one side or the other by injecting the mouse and immediately confining it to that side. On the final day, the amount of time the mouse spends in the drug-paired side is determined and the percent change is calculated. If the percent change is positive, the drug is thought to be rewarding and likely to be abused by humans.
Methods The CPP apparatus used was a plastic box, approximately 12 inches×6 inches×6 inches (1/w/h). One half of the box was transparent with a scored or textured floor and the other half of the box had blue vertical stripes with a smooth floor. The box was divided such that the mice could go from one side to the other through an opening or be confined to one side.
Preconditioning On day 1, each mouse was allowed to explore both sides of the box for 15 minutes to expose them to the novel environment. On day 2, each mouse was placed into the box for 15 minutes and the amount of time the mouse spent in each side of the box was recorded. Mice that spend more than 9 minutes in one side of the box are excluded (two of 32 mice were excluded).
Conditioning On day 3, each mouse was given two sets of IV injections. First, the mice were injected with saline and randomly confined to one side of the box for 30 minutes. The mice were then injected with the drug (or saline, for control mice) and confined to the other side of the box (“drug-paired side”) for 30 minutes. This conditioning paradigm was repeated for three days.
Postconditioning On day 6, the amount of time the mouse spent in each side of the box was recorded. For the results, the amount of time the mouse spent in the drug-paired side during preconditioning was subtracted from the time spent in the drug-paired side during post-conditioning to reach a “score”: Score=Postconditioning time in drug-paired side-Preconditioning time spent in drug-paired side.
FIG. 1 depicts the percent change in time spent in the drug-paired side. The asterisks in the graph indicate significant difference from saline (p<0.05).

[4] = test system: male ICR mice; experiment: Mouse radiant heat tail flick assay after acute ICV administration; format: in vivo; settings: for ED50 nmol (95% C.L.), antinociceptive potency: mouse tail flick, acute ICV administration, conjugates and coadministration; for ED50 ICV (nmol): tail flick, Table 2; for effect of naltrindole pretreatment on ED50 / acute analgesic activity: pretreatment with the delta antagonist naltrindole
Protocol: Acute drug administration. Drugs were dissolved in sterile saline (0.9% NaCl). Animals were anesthetized with halothane and drugs were administered with a Hamilton syringe mated to a shortened (3 mm) 27-g needle in a volume of 4 μl by ICV injection into the lateral cerebral ventricle (Haley et al., 1957). The injection site was 1.6 mm lateral and 0.6 mm caudal to bregma.
Antinociceptive testing. […] Mice were tested once before injection (control time).

[5] = test system: male ICR mice; experiment: Physical dependence: naloxone-precipitated withdrawal jumping after chronic ICV infusion; format: in vivo, mouse; settings: for physical dependence on chronic ICV administration: 3-day ICV infusion, naloxone-precipitated jumping; for # of Jumps (SEM), naloxone-precipitated withdrawal: average jumps in 10 minutes after naloxone 1 mg/kg sc, after 3-day ICV infusion
Protocol: as §1, §2, §3
Testing for dependence and tolerance. The development of physical dependence was assessed by quantifying withdrawal jumping observed during precipitated withdrawal (Way et al., 1969) on the fourth day after surgery. Mice were injected with naloxone (1 mg/kg, sc) and placed into Plexiglas cylinders for 10 minutes. During those 10 minutes, vertical jumps were counted as withdrawal signs.

[6] = test system: male ICR mice; experiment: GI transit inhibition (charcoal meal) after IV administration; format: in vivo, mouse

CN1CCC23c4c5ccc(O)c4OC2C(NC(=O)COCC(=O)NCCCCCCCNC(=O)COCC(=O)Nc2cccc4c6c([nH]c24)C2Oc4c(O)ccc7c4C24CCN(CC2CC2)C(C7)C4(O)C6)CCC3(O)C1C5 (stereo not shown) [Compound 8]
tolerance on chronic ICV administration ([1]; listed as MDAN-21): no tolerance or dependence was observed; also recorded: produced no tolerance or physical dependence | Chronic ED50 nmol (95% C.L.) [1]: 0.10 (0.09-0.11) nmol | Saline ED50 nmol (95% C.L.) [1]: 0.10 (0.09-0.11) nmol | decrease in potency when administering IV versus ICV [2]: ~40 × | ED50 IV (nmol) ([2]; tail flick, IV): 3.3 (3.0-3.6) nmol | potency relative to morphine when given IV ([2]; tail flick, IV): 50 fold | conditioned place preference ([3]; 4× the ED90 analgesic dose): did not display a place preference | conditioned place preference (summary statement) [3]: does not produce conditioned place preference | ED50 nmol (95% C.L.), antinociceptive potency [4]: 0.08 (0.06-0.10) nmol | ED50 ICV (nmol) [4]: 0.08 (0.06-0.10) nmol | physical dependence on chronic ICV administration ([5]; listed as MDAN-21): no tolerance or dependence was observed; also recorded: produced no tolerance or physical dependence | # of Jumps (SEM), naloxone-precipitated withdrawal [5]: 3.5 (1.7)

CN1CCC23c4c5ccc(O)c4OC2C(NC(=O)COCC(=O)NCCNC(=O)COCC(=O)Nc2cccc4c6c([nH]c24)C2Oc4c(O)ccc7c4C24CCN(CC2CC2)C(C7)C4(O)C6)CCC3(O)C1C5 (stereo not shown) [Compound 3]
tolerance on chronic ICV administration ([1]; listed as MDAN-16): produced both tolerance and dependence; also recorded: both tolerance and physical dependence developed | Chronic ED50 nmol (95% C.L.) [1]: 4.72 (3.47-5.91) nmol | Saline ED50 nmol (95% C.L.) [1]: 1.62 (1.35-1.89) nmol | fold increase in ED50 value after chronic ICV infusion ([1]; three-day ICV infusion): 2.6 fold | conditioned place preference ([3]; 4× the ED90 analgesic dose): suggested a place preference | ED50 nmol (95% C.L.), antinociceptive potency [4]: 1.79 (1.54-2.04) nmol | effect of naltrindole pretreatment on ED50 / acute analgesic activity [4]: This effect was not observed | physical dependence on chronic ICV administration ([5]; listed as MDAN-16): produced both tolerance and dependence; also recorded: both tolerance and physical dependence developed | # of Jumps (SEM), naloxone-precipitated withdrawal [5]: 30 (23) | # of Jumps (SEM), naloxone-precipitated withdrawal ([5]; listed as MDAN-16): 30

CN1CCC23c4c5ccc(O)c4OC2C(NC(=O)COCC(=O)NCCCCCNC(=O)COCC(=O)Nc2cccc4c6c([nH]c24)C2Oc4c(O)ccc7c4C24CCN(CC2CC2)C(C7)C4(O)C6)CCC3(O)C1C5 (stereo not shown) [Compound 6]
tolerance on chronic ICV administration ([1]; listed as MDAN-19): no tolerance or dependence was observed; also recorded: produced no tolerance or physical dependence | Chronic ED50 nmol (95% C.L.) [1]: 0.40 (0.33-0.47) nmol | Saline ED50 nmol (95% C.L.) [1]: 0.42 (0.37-0.47) nmol | conditioned place preference ([3]; 4× the ED90 analgesic dose): did not display a place preference | ED50 nmol (95% C.L.), antinociceptive potency [4]: 0.43 (0.36-0.50) nmol | effect of naltrindole pretreatment on ED50 / acute analgesic activity [4]: acute analgesic activity was similar to the control ligand MA-19 | physical dependence on chronic ICV administration ([5]; listed as MDAN-19): no tolerance or dependence was observed; also recorded: produced no tolerance or physical dependence | # of Jumps (SEM), naloxone-precipitated withdrawal [5]: 3.6 (1.7)

CN1CC[C@]23c4c5ccc(O)c4O[C@H]2[C@@H](O)C=C[C@H]3[C@H]1C5 [Morphine, reference compound]
Chronic ED50 nmol (95% C.L.) [1]: 26.80 (20.82-32.78) nmol | Saline ED50 nmol (95% C.L.) [1]: 4.54 (3.51-5.56) nmol | efficacy in the TF test ([2]; IV, tail flick 15 min after drug): fully efficacious | decrease in potency when administering IV versus ICV [2]: ~40 × | ED50 IV (nmol) ([2]; tail flick, IV): 168 (146-178) nmol | conditioned place preference ([3]; 2× the ED90 analgesic dose): exhibiting a conditioned place preference | conditioned place preference ([3]; 4× the ED90 analgesic dose): demonstrated conditioned place preference | conditioned place preference (summary statement) [3]: produced conditioned place preference | ED50 ICV (nmol) [4]: 4.1 (3.7-4.8) nmol | # of Jumps (SEM), naloxone-precipitated withdrawal [5]: 100 (15) | # of Jumps (SEM), naloxone-precipitated withdrawal ([5]; listed as morphine): 100±15 | efficacy in the GIT inhibition assay [6]: fully efficacious | GIT inhibition ED50 ([6]; charcoal meal 15 min after drug): 129 (115-142) nmol
